# Where “and” joins values, the source holds several entries; their conditions need not be identical. Equal entries are not always repeated.
# Experiments:
# [1] = molecular target: T1, Acetylcholine receptor subunit delta (Torpedo californica) (UniProt P02718); assay: Compound was tested for its binding affinity against nicotinic acetylcholine receptor by fluorimetry assay; conditions: torpedo fuscomaculata
# T1 sequence (whole entry): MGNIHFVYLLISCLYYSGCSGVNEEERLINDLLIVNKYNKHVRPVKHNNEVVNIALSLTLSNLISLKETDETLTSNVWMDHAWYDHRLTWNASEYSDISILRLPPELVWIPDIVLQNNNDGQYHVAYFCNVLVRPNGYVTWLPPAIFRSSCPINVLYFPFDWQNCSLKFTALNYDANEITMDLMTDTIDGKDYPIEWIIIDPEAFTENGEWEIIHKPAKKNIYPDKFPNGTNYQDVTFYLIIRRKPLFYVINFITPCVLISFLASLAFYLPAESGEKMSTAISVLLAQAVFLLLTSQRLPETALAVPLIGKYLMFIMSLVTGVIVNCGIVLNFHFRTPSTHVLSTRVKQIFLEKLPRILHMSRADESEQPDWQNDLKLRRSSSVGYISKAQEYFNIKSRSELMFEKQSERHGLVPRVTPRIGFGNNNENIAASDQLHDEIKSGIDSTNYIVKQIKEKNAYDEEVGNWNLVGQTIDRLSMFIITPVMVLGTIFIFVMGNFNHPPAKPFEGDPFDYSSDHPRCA
# [2] = molecular target: T1, Acetylcholine receptor subunit delta (Torpedo californica); assay: Compound was tested for its binding affinity against nicotinic acetylcholine receptor by spectrometry assay; conditions: torpedo fuscomaculata
Compound,Bmax [1],Kd1 [1],Bmax [2],Kd1 [2],Kd2 [2],Kd2 [1]
COc1ccc(Cc2nccc3cc(OC)c(OC)cc23)cc1OC,0.27 µM,1.7 µM,2.07 µM,2.4 µM,31 µM and 29 µM,
CC(=O)OCC[N+](C)(C)C,,0.12 µM,,0.18 µM,3 µM,2.3 µM
COc1ccc2cc3[n+](cc2c1OC)CCc1cc2c(cc1-3)OCO2,0.31 µM,0.77 µM,2.14 µM,0.84 µM,27 µM and 34 µM,
c1ccc2cnccc2c1,0.31 µM,3.1 µM,1.86 µM,3.3 µM,51.6 µM,49 µM
COc1cc2c3cc1Oc1cc(ccc1O)C[C@@H]1c4c(cc(OC)c(O)c4Oc4ccc(cc4)C[C@@H]3N(C)CC2)CC[N+]1(C)C,,0.05 µM,,0.03 µM,8 µM,11.4 µM
